Source: publication PMC12693419, “Design, Synthesis, Biological Evaluation, and In Silico Studies of Novel Multitarget Cinnamic Acid Hybrids” (Molecules, 2025)

Columns and labels:
[1] = In vitro inhibition of linoleic acid lipid peroxidation (AAPH); conditions: 100 μM; anti-lipid peroxidation
From the text: In the present study, the aim was to evaluate the anti-lipid peroxidation activities of the synthesized compounds 5a–i, 6a–i, 9a–i, and 11 and compare their efficacy to that of Trolox, a well-known antioxidant. Using the water-soluble compound 2,2′-azobis(2-amidinopropane) hydrochloride (AAPH), peroxyl radicals are generated through spontaneous thermal decomposition in vitro. This experimental setup imitated the lipid peroxidation processes occurring in cells due to radical activity allowing the investigation of the effectiveness of the tested compounds under conditions resembling cellular oxidative stress.
An in vitro assay was performed following previously established protocols. The compound 2,2′-Azobis(2-methylpropionamidine) dihydrochloride (AAPH) was used as a controlled source of thermally generated alkylperoxy free radicals. The formation of conjugated diene hydroperoxides through the oxidation of sodium linoleate in an aqueous dispersion at 37 °C was measured by monitoring absorbance at 234 nm. The results were compared with the reference compound, Trolox (93%) (Table 6).

[2] = molecular target: T1, soybean lipoxygenase isoenzyme-1 (SLOX-1) (Glycine max, UniProt P08170); assay: In vitro inhibition of soybean lipoxygenase; type: biochemical; conditions: pH 9.0
T1 construct: purchased Merck and Sigma-Aldrich
T1 sequence (P08170 1-839): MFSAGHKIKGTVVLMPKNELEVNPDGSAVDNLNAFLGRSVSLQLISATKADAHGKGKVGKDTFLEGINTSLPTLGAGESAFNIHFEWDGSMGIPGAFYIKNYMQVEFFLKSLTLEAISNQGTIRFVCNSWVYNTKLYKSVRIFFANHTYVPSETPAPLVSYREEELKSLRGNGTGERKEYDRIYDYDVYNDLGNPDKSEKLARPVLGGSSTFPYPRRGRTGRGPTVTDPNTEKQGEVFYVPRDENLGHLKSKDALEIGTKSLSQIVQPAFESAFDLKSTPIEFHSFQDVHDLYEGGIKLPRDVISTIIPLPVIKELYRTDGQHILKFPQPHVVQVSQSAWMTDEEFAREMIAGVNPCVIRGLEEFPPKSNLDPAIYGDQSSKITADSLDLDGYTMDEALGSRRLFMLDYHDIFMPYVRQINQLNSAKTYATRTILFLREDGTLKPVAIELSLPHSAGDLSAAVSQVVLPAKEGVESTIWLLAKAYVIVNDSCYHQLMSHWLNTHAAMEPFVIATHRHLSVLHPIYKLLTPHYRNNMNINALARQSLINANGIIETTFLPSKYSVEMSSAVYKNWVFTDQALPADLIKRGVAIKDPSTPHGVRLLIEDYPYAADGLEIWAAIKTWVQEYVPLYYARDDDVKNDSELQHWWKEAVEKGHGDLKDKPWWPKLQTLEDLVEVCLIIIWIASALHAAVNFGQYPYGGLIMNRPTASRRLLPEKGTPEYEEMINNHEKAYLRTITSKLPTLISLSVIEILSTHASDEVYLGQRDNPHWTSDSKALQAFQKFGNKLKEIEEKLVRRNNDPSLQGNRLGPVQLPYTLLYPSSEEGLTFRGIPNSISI
Protocol: In vitro anti-LOX activities were evaluated using soybean lipoxygenase isoenzyme-1 (SLOX-1), a commonly used model for mammalian LOXs.
An in vitro study was conducted following a previously reported method. The tested compounds were dissolved in DMSO (100 µM) and incubated at room temperature with 0.1 mL of sodium linoleate as the substrate and 0.2 mL of soybean lipoxygenase solution in Tris-HCl buffer (pH 9.0).

[3] = molecular target: T2, COX-1 (Homo sapiens, UniProt P23219); assay: In vitro inhibition of COX-1; type: biochemical
T2 construct: purchased Merck and Sigma-Aldrich
T2 sequence (P23219 24-599): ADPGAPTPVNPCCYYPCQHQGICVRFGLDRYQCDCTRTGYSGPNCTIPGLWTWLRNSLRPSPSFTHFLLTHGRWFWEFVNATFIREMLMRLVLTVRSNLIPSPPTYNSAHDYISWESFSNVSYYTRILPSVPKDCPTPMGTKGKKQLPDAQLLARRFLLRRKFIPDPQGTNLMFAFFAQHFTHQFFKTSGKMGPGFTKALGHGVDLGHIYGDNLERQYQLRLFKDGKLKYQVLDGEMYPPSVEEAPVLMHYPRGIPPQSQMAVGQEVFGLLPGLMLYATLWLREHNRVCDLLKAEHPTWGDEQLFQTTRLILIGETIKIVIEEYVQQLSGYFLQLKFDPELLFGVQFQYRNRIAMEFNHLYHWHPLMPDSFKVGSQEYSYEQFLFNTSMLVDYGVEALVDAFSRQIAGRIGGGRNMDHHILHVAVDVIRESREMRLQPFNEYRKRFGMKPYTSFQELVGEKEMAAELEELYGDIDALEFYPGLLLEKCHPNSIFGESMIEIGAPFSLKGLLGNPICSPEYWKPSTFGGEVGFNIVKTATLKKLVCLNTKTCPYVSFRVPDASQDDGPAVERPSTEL
From the text: Enzyme inactivation can occur due to the accumulation of hydroperoxides formed from arachidonic acid or other fatty acid substrates. In order to prevent this in the in vitro experiment used for testing COX inhibition activity of the new molecules, a co-substrate like N,N,N′,N′-tetramethyl-p-phenylenediamine (TMPD) is included, as it undergoes co-oxidation by PGG2. The oxidized TMPD has a maximum absorbance at 590 nm. COX enzymes also depend on heme (Fe^3+-protoporphyrin IX) as a cofactor, which can dissociate during purification. To ensure maximum enzyme activity, heme is added to the reaction mixture during the in vitro assay for ovine COX-2 inhibition and COX-1 inhibition.
Cyclooxygenase (COX) activity was measured using arachidonic acid (AA) as the substrate and N,N,N′,N′-tetramethylphenylenediamine (TMPD) as the co-substrate following the reported method. […] The substrate oxidation was monitored at room temperature by recording the increase in absorbance at 590 nm. Absorbance due to the spontaneous oxidation of TMPD was subtracted from the initial oxidation rate observed in the presence of AA. The inhibitory activity of the test compounds at a concentration of 100 μM was evaluated after a 6-min pre-incubation with the enzyme in the presence of heme and TMPD.

[4] = molecular target: T3, bovine serum albumin (Bos taurus, UniProt P02769); assay: In vitro inhibition of albumin denaturation; conditions: heat denaturation, 60 °C 10 min
T3 construct: bovine serum albumin solution (fraction V); purchased Merck and Sigma-Aldrich; host or cells: bovine serum (fraction V)
T3 sequence (P02769 25-607): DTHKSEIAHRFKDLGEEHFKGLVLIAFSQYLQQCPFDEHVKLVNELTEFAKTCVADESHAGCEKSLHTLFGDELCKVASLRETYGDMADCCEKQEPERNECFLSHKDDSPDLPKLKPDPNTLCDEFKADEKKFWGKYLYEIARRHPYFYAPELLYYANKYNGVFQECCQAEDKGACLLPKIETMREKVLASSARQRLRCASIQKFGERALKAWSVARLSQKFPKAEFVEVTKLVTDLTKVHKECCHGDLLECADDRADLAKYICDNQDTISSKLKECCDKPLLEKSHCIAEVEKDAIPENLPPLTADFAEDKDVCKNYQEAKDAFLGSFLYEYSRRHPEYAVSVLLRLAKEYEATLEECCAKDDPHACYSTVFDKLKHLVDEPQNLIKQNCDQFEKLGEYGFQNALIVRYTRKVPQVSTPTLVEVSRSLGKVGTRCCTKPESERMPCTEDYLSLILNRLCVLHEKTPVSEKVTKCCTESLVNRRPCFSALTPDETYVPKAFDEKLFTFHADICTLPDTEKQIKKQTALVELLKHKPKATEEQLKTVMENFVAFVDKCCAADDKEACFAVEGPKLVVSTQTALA
Protocol: The ability of a compound to inhibit the thermal denaturation of albumin is considered an indicator of anti-inflammatory activity. Heat exposure simulates conditions of cellular stress or inflammation, during which protein and tissue damage occur. Certain substances can protect proteins from denaturation upon heating by stabilizing their structure and preventing aggregation and precipitation.
Inhibition of albumin denaturation was measured following the reported method. In a test tube, 1 mL of bovine serum albumin solution (fraction V, 1% w/v in phosphate buffer, pH 7.4) and 100 μL of the test compound solution were added sequentially. The mixture was incubated at 37 °C for 15 min, followed by heating at 60 °C for 10 min. After cooling to room temperature, the absorbance was measured at 660 nm. DMSO was used as the blank, and the results were compared to acetylsalicylic acid, which served as the reference compound (Table 6).

[5] = tested on: HeLa cells; assay: MTT viability assay; type: cell-based; conditions: Homo sapiens, 48 h
Protocol: (§1) HeLa, MCF-7, U251, U87, MDA-MB-435, and MDA-MB-231 cancer cell lines were maintained in incubators at 37 °C with 5% CO2 in DMEM medium supplemented with 10% (v/v) fetal bovine serum (FBS) and antibiotics/antimycotics. All cell lines used in this study originate from the Laboratory of Biochemistry, Department of Chemistry, Aristotle University of Thessaloniki. They are low-passage, mycoplasma-free cancer cell lines that have been extensively used over the past 25 years in numerous studies across various fields of cancer research, including drug cytotoxicity testing.
(§2) All cell lines tested were seeded in 96-well plates at a concentration of 6 × 10^3 cells per well, except HeLa, which were seeded at 3 × 10^3 cells per well. The day after, cells were exposed to increasing concentrations of the compounds for 48 h. Cell viability was determined using the 3-(4,5-dimethylthiazol-2-yl)-2,5-diphenyltetrazolium bromide (MTT) assay, a colorimetric assessment of cellular metabolic activity as described previously. Absorbance values from treated samples were normalized to those of untreated controls, which were assigned to a 100% viability value.

[6] = tested on: MCF-7 cells; assay: MTT viability assay; type: cell-based; conditions: Homo sapiens, MCF7, 48 h
Protocol: as §1, §2

[7] = molecular target: T4, ovine COX-2 (Ovis aries, UniProt P79208); assay: In vitro inhibition of ovine cyclooxygenase-2
T4 sequence (P79208 17-603): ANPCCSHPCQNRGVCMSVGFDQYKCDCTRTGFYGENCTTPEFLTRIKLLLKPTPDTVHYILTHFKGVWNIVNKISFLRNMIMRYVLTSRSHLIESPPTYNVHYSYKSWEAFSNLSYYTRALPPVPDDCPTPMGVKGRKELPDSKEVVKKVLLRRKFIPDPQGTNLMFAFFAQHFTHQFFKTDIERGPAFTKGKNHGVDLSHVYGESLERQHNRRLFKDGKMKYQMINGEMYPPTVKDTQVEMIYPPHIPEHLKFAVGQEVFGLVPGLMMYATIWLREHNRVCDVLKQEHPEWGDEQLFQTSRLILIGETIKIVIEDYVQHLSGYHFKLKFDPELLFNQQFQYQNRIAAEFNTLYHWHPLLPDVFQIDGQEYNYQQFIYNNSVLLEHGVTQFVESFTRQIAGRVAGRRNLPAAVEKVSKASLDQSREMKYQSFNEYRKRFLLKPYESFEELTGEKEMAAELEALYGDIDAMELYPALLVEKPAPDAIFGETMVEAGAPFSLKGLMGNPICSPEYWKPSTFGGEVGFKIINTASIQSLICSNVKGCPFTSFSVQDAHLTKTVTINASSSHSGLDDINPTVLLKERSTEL
Protocol: In order to prevent this in the in vitro experiment used for testing COX inhibition activity of the new molecules, a co-substrate like N,N,N′,N′-tetramethyl-p-phenylenediamine (TMPD) is included, as it undergoes co-oxidation by PGG2. The oxidized TMPD has a maximum absorbance at 590 nm. […] To ensure maximum enzyme activity, heme is added to the reaction mixture during the in vitro assay for ovine COX-2 inhibition and COX-1 inhibition [63].
The in vitro COX-2 inhibitory activity was assessed using arachidonic acid (AA) as a substrate and N,N,N′,N′-tetramethyl-p-phenylenediamine (TMPD) as a co-substrate in a Tris-HCl buffer (pH 8.5), following the reported method [89]. To the test tube, 10 µL of the compound dissolved in DMSO was added to a mixture containing 730 µL of Tris-HCl buffer (pH 8.5), 50 µL of heme, 10 µL of COX-2 enzyme, and 100 µL of TMPD. The absorbance was measured at 590 nm. […] A blank determination was conducted as a negative control.

O=C(OCc1c(-c2ccccc2)no[n+]1[O-])/C(=C/c1cccs1)c1ccccc1 [Compound 9i, (E)-4-Phenyl-3-(((2-phenyl-3-(thiophen-2-yl)acryloyl)oxy)methyl)-1,2,5-oxadiazole 2-oxide]
AAPH Inh. at 100 μΜ [1]: no | LOX Inh. IC50 [2]: no | inhibition at 100 µM [3]: 49% | Albumin (inhibition of albumin denaturation) [4]: no | EC50 [5]: 56 µM | EC50 [6]: > 100 µM | IC50 [7]: 70 µM
